For nine compounds, GI50 and TGI results are on record in PubChem BioAssay (NCI).

Assay in all cases: NCI anticancer screen, dose series, 48 h
The subject of assay [1] is HOP-62 NSCLC.
Assay [2] has as its system IGROV1 ovarian.
The test system of assay [3] is LOX IMVI melanoma.
In assay [4] the test system is MDA-MB-231 breast.
The subject of assay [5] is MDA-MB-435.
In assay [6] the test system is NCI-H522 lung.
For assay [7], the system named is SK-MEL-2 melanoma.
Assay [8] relates to SNB-19 CNS.
Assay [9] has as its system SNB-75 CNS.
For assay [10], the system named is SR leukemia.

The structures appear in SMILES notation.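 Five compound concentrations were applied to cells in 96-well plates for 48 hours; endpoints were derived by simple linear interpolation of the resulting dose-response curve. GI50 = concentration required for 50% inhibition of growth. TGI is the concentration that stops growth completely.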

On to `O=C(c1ccc(Nc2nccc(NCCCCNc3ccnc4cc(Cl)ccc34)n2)cc1)N1CCCCC1`, for which the GI50 in assay [1] is 2.24 µM; in assay [2], 2.83 µM; in assay [3] it was 0.971 µM; in assay [4] it was 1.86 µM; in assay [5], 1.7 µM; in [6], 2.22 µM. The GI50 is 2.08 µM in assay [7], 3.89 µM in assay [8], 1.58 µM in assay [9] and 0.219 µM in assay [10]. Moreover, the TGI was 6.02 µM in assay [1]; 9.08 µM in assay [2]; 2.33 µM in [3]; 4.97 µM in [4]; 3.89 µM in assay [5]; 4.89 µM in assay [6]. In addition, the TGI worked out at 4.03 µM in [7], 21.1 µM in [8], 3.35 µM in assay [9] and 1.5 µM in assay [10].
Turning to `OCC1OC(n2cnc3c(NCc4ccco4)ncnc32)C(O)C1O` (stereo not given), the GI50 in assay [1] was 3.79 µM; in assay [2] it was 2.09 µM; in assay [3] it was 0.338 µM; in assay [4] it was 0.348 µM; in [5], 2.08 µM; in [6] it was 1.34 µM. Further, the GI50 was 5.43 µM in assay [7], 3.99 µM in [8], 1.73 µM in [9] and 1.56 µM in assay [10]. The TGI in [1] is greater than 48.9 µM; in [2], 13.9 µM; in assay [3] it was 1.48 µM; in [4], 18.8 µM; in assay [5], 15.1 µM; in assay [6] it was 22 µM. Besides, the TGI is 31.6 µM in [7], greater than 100 µM in [8], greater than 28.1 µM in [9] and 6.92 µM in assay [10].
Regarding `CC(=N/NC(N)=S)/C(C)=N/NC(N)=S`, the TGI in assay [1], in assay [2], in assay [3], in assay [4], in assay [5] and in assay [6] was greater than 100 µM each time. In addition, the TGI in [7], in [8], in assay [9] and in [10] was greater than 100 µM each time.
For `C[C@@H](Oc1cc(-c2cnn(C3CCNCC3)c2)cnc1N)c1c(Cl)cc(F)cc1Cl`, the GI50 in [1] was 2 µM; in assay [2] it was 3.31 µM; in assay [3] it was 1.37 µM; in [4] it was 1.61 µM; in [5] it was 0.749 µM; in assay [6], 1.79 µM. The GI50 in assay [7] is 1.95 µM; in [8] it was 3.46 µM; in assay [9], 1.65 µM; in assay [10] it was 0.0497 µM. In addition, the TGI stood at 9.52 µM in assay [1]; 16.7 µM in assay [2]; 3.21 µM in assay [3]; 5.22 µM in assay [4]; 9.42 µM in [5]; 5.73 µM in assay [6]. Further, the TGI is 5.41 µM in assay [7], 14.3 µM in [8], 4.38 µM in [9] and 1.52 µM in assay [10].
Take `O=c1[nH]c2ccccc2n1C1CCN(CCOc2ccccc2)CC1`: the GI50 in assay [1] was 50.3 µM; in assay [2], 91.7 µM; in assay [3] it was 15.5 µM; in assay [4], 27 µM; in assay [5], 6.75 µM; in [6], 56.9 µM. Moreover, the GI50 was 32.8 µM in assay [7], 47.8 µM in [8], 23.7 µM in assay [9] and 44 µM in assay [10]. The TGI is greater than 100 µM in [1]; greater than 100 µM in assay [2]; greater than 100 µM in assay [3]; greater than 100 µM in [4]; 72.3 µM in assay [5]; greater than 100 µM in assay [6]. The TGI in assay [7], in assay [8], in [9] and in [10] was greater than 100 µM each time.
As for `Cc1ccc(NC2=CC(=O)C(=O)c3ccccc32)cc1`, the GI50 in assay [1] was 1.8 µM; in assay [2], 2.73 µM; in [3], 2.11 µM; in assay [4], 2.57 µM; in [5], 1.74 µM; in assay [6] it was 1.45 µM. Also, the GI50 in assay [7] was 1.86 µM; in assay [8], 2.09 µM; in assay [9], 0.779 µM; in assay [10] it was 3.96 µM. Further, the TGI is 4.33 µM in assay [1]; 12.9 µM in assay [2]; 6.45 µM in assay [3]; 15.8 µM in assay [4]; 3.2 µM in assay [5]; 3.18 µM in [6]. In addition, the TGI was 4.06 µM in [7], 4.96 µM in assay [8], 2.11 µM in assay [9] and greater than 100 µM in assay [10].
As for `CCN(CC)CCCC(C)Nc1ccnc(/C=C/c2ccc(Cl)cc2)c1` (stereo not given), the TGI in [1] came to 4.11 µM; in assay [2], 9.47 µM; in assay [3], 3.28 µM; in assay [4], 3.19 µM; in [5], 2.95 µM; in assay [6], 3.81 µM. The TGI was 4.25 µM in assay [7], 16.6 µM in assay [8], 4.5 µM in assay [9] and greater than 27.2 µM in [10].
Consider `COc1ccc(C(Nc2ccccn2)c2cc(C(C)(C)C)cc(C(C)(C)C)c2O)cc1` (stereo not given), for which the TGI in [1] was 78.2 µM; in [2] it was greater than 100 µM; in assay [3], 35.8 µM; in [4], greater than 100 µM; in assay [5] it was 62.4 µM; in assay [6], 17.7 µM. Also, the TGI in assay [7] was 43.2 µM; in assay [8], greater than 100 µM; in assay [9], 49.4 µM; in assay [10], greater than 100 µM.
Turning to `c1ccc2c(c1)[nH]c1c3ccccc3sc21`, the TGI in [1], in assay [2], in assay [3], in assay [4], in assay [5] and in assay [6] was greater than 100 µM throughout. Also, the TGI in assay [7], in [8], in assay [9] and in [10] was greater than 100 µM throughout.
